Reference: patent publication US20050079613A1, “Downregulation of cell surface glycoproteins by a family of human ubiquitin ligases” (Oregon Health & Science University, priority 2002, published 2005)

Test system: HLA-A2.1
Assay: Pulse-chase of HLA-A2.1 maturation and turnover in transfected HeLa cells
Assay type: cell-based, human
Details: for effect of inhibitor on degradation of HLA-A2.1 heavy chains: MARCH-IV and HLA-A2.1 co-transfected cells, concanamycin A 50 nM, lactacystin 20 μM
Protocol: Metabolic labeling, immunoprecipitation and Western blotting. HeLa cells were grown to 80% confluency in 100 mm tissue culture dishes and transfected as above. Cells were incubated in serum-free and methionine-free medium for 30 minutes, and metabolically labeled with ^35S-cysteine/^35S-methionine (250 μCi, Amersham) for the indicated time. After labeling, cells were washed twice with PBS and either lysed immediately in PBS containing 1% Triton X-100 and protease inhibitors (Roche, Indianapolis, Ind.), or the label was chased with excess (2 mM) unlabeled cysteine and methionine in the presence or absence of specific inhibitors for the indicated time. The cell lysates were precleared with protein A/G agarose beads and incubated with 3 μg of antibody for one hour and followed by two hours incubation with protein A/G beads. Immunoprecipated proteins were washed five times with 0.1% Triton X-100 in PBS. All samples were boiled in SDS buffer and analyzed by SDS-PAGE gel electrophoresis. Where indicated, samples were treated with Endoglycosidase H (Roche) according to manufacturer's instructions. Briefly, samples were initially denatured at 100° C. in 40 μl of 0.3% SDS, 150 mM 2-mercaptoethanol, 50 mM sodium acetate, pH 5.5 and incubated with 4 milli-Units of Endo H overnight at 37° C. All samples were boiled in SDS buffer and analyzed by SDS-PAGE gel electrophoresis. Gels were fixed, dried and exposed to Kodak BioMax MR film. Western blotting was accomplished using the WesternBreeze Chemiluminescent Detection System (Invitrogen) following Semi-dry transfer to PVDF membranes (Millipore, Bedford, Mass.).
To determine the ultimate fate of the MHC I molecules in the presence of MARCH-IV, the maturation and turnover of co-transfected HLA-A2.1 in pulse-chase experiments (FIG. 12B) was followed. In the absence of MARCH-IV, HLA-A2.1 molecules acquired Endo H resistance after 1 hour of chase indicating exit from the ER. […]

Row | SMILES | effect of inhibitor on degradation of HLA-A2.1 heavy chains | effect of inhibitor on HLA-A2.1 in the absence of MARCH-IV (cells without MARCH-IV)
1 | C/C=C/[C@H]1O[C@@](O)([C@@H](C)[C@H](O)[C@H](C)[C@H]2OC(=O)/C(OC)=C/C(C)=C/[C@@H](C)[C@@H](O)[C@@H](CC)[C@@H](O)[C@H](C)C/C(C)=C/C=C/[C@@H]2OC)C[C@@H](O[C@H]2C[C@@H](O)[C@H](OC(N)=O)[C@@H](C)O2)[C@@H]1C [concanamycin A] | delayed the degradation of HLA-A2.1 | no effect
2 | CC(=O)N[C@@H](CSC(=O)[C@]1([C@@H](O)C(C)C)NC(=O)[C@H](C)[C@@H]1O)C(=O)O [lactacystin] | did not increase recovery of HLA-A2.1 heavy chains | 
